According to patent publication US20230108270A1, “STABILIZATION OF COMPOUNDS AS CYCLODEXTRIN COMPLEXES” (University of Pittsburgh - Of the Commonwealth System of …, priority 2020, published 2023):

Test: Stability of NO2-OA/β-cyclodextrin inclusion complex resuspended in water
Type: physicochemical
Protocol: An important consideration when working with nitroalkene fatty acids is their high sensitivity to water or humidity. […] Stability was compared with the total amount added to the aqueous solution.
These stability assays were performed at room temperature and data was similar between the two tested concentrations of 0.31 mg/ml and 1.95 mg/ml. […] A new equilibrium is rapidly achieved and the sample is stable after this initial decay.

time to complete decomposition of NO2-OA in water (NO2-OA added to water without cyclodextrin): ≤ 4 h
time to loss of 10-NO2-OA in solution (same molar amount of 10-NO2-OA added to water): ≤ 4 hrs
SMILES: CCCCCCCCC(=CCCCCCCCC(=O)O)[N+](=O)[O-] [NO2-OA, 10-nitro-octadec-9-enoic acid]
